Experimental data from paper PMC12285759 (RSC Advances, 2025).

Test system: Vero Cells
Test: MTT assay, cytotoxicity of the test compounds
Type: cell-based
Conditions: not tested for inhibitory effect

SMILES: O=c1ccn([C@@H]2O[C@H](COCc3ccccc3)[C@H](OCc3ccccc3)[C@H](OCc3ccccc3)[C@H]2I)c(=O)[nH]1 [3h]
- cytotoxicity (in words): cytotoxic
